From ChEMBL document CHEMBL1135811, “4-(Phenylsulfonyl)piperidines: novel, selective, and bioavailable 5-HT(2A) receptor antagonists” (J Med Chem, 2002)

What was measured:
Type in all cases: ADME, organism-based
[1] = Maximum blood concentration after oral dose 1 mg/kg; set-up: dose 1 mg/kg, route oral
[2] = Mean residence time following intravenous dosing; settings: in vivo
[3] = Bioavailability; settings: eutheria, in vivo
[4] = Area under concentration-time curve for 0-4 hr after oral dose 1 mg/kg; set-up: time < 4 hr, dose 1 mg/kg, route oral; settings: in vivo
[5] = (§1) Maximum blood concentration after oral dose of […]; set-up: dose 1.2 mg/kg, route oral
[6] = (§2) Area under concentration-time curve for 0-4 hr after oral dose of […]; set-up: time < 4 hr, dose 1.2 mg/kg, route oral; settings: in vivo
[7] = Area under concentration-time curve for 0-4 hr after oral dose of 2.0 mg/kg; set-up: time < 4 hr, dose 2 mg/kg, route oral; settings: in vivo
[8] = Maximum blood concentration after oral dose of 2.0 mg/kg; set-up: dose 2 mg/kg, route oral
[9] = Area under concentration-time curve for 0-4 hr after oral dose of 10 mg/kg; set-up: time < 4 hr, dose 10 mg/kg, route oral; settings: in vivo
[10] = Maximum blood concentration after oral dose of 10 mg/kg; set-up: dose 10 mg/kg, route oral
[11] = as §1; set-up: dose 1.5 mg/kg, route oral
[12] = as §2; set-up: time < 4 hr, dose 1.5 mg/kg, route oral; settings: in vivo

| Cmax [1] [ng/mL] | MRT [2] [h] | bioavailability [3] [%] | AUC(0-t) at 4 h [4] [ng·h/mL] | Structure (SMILES) | also measured |
| --- | --- | --- | --- | --- | --- |
| 140 | 0.7 | 30 | 171 | O=C(CN1CCC(S(=O)(=O)c2ccccc2)CC1)c1ccc(F)cc1 | – |
| – | 1 | 3 | – | COc1cccc([C@H](O)C2CCN(CCc3ccc(F)cc3)CC2)c1OC [VOLINANSERIN] | Cmax [5]: 2 ng/mL; AUC(0-t) at 4 h [6]: 8 ng·h/mL |
| 30 | 2.3 | 23 | 177 | N#Cc1ccc(S(=O)(=O)C2CCN(CCc3ccc(F)cc3F)CC2)cc1 | – |
| 38 | 1.1 | 24 | 115 | NC(=O)c1cccc(S(=O)(=O)C2CCN(CCc3ccc(F)cc3F)CC2)c1 | – |
| – | – | – | – | OC1c2ccccc2CCC12CCN(CCc1ccccc1)CC2 (stereo unspecified) | AUC(0-t) at 4 h [7]: 3 ng·h/mL; Cmax [8]: 2 ng/mL |
| – | – | – | – | O=S1(=O)c2ccccc2CCC12CCN(CCc1ccc(F)cc1F)CC2 | AUC(0-t) at 4 h [7]: 1 ng·h/mL; Cmax [8]: 1 ng/mL |
| – | 1 | 2 | – | O=S(=O)(c1ccccc1)C1CCN(CCc2ccc(F)cc2F)CC1 | AUC(0-t) at 4 h [9]: 100 ng·h/mL; Cmax [10]: 23 ng/mL |
| 70 | 0.9 | 22 | 199 | NC(=O)c1ccc(S(=O)(=O)C2CCN(CCc3ccc(F)cc3F)CC2)cc1 | – |
| – | 1.5 | – | – | COc1ccc2c(c1)CCC1(CCN(CCc3ccc(F)cc3F)CC1)O2 | Cmax [11]: 2 ng/mL; AUC(0-t) at 4 h [12]: 4 ng·h/mL |
